Measured values: patent publication US20250059188A1, “ARYLSULPHONAMIDE COMPOUNDS” (Anaxis Pharma Pty Ltd, priority 2021, published 2025)

What was measured:
[1] = biological target: human MLKL (full length) (Homo sapiens (Human), UniProt Q8NB16); experiment: KINOMEscan binding assay, human MLKL (full length); details: equilibrium dissociation constant
Summary of the method: (§1)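 In this assay, compounds displace DNA- or phage-tagged kinase from an immobilized ligand, and eluted kinase is quantified by qPCR.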

[2] = tested on: U937 cells; experiment: Counter screen: U937 cell viability without TSQ cocktail (off-target effect); set-up: species or system human; details: Homo sapiens, U-937, compound without TSQ cocktail, read-out: Off-target effect (IC50 cell-based assay)
Summary of the method: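 U937 cells (20,000/well) exposed to compound (10-point 1:3 titration from 36 μM, 0.3% DMSO) without TSQ cocktail for 48 h at 37 °C/5% CO2. Viability read as ATP by CellTiter-Glo luminescence; IC50 from 4-parameter logistic fit.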

[3] = biological target: human RIPK3 (Homo sapiens (Human), UniProt Q9Y572); experiment: KINOMEscan binding assay, human RIPK3; details: equilibrium dissociation constant
Summary of the method: as §1

[4] = biological target: human RIPK1 (Homo sapiens (Human), UniProt Q13546); experiment: KINOMEscan binding assay, human RIPK1; details: equilibrium dissociation constant
Summary of the method: as §1

[5] = tested on: U937 human histiocytic leukemia cell line; experiment: Inhibition of TSQ induced necroptosis in U937 cells (CellTitre-Glo); details: Homo sapiens, U-937, TSQ cocktail (TNF, Smac mimetic, Q-VD-OPh), 48 hours, read-out: Inhibition of TSQ-induced necroptosis (IC50 cell-based assay)
Summary of the method: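 U937 cells (20000/well) treated with compound (10-point, 1:3 from 36 μM, 0.3% DMSO) plus TSQ cocktail (hTNF-Fc 100 ng/ml, Smac mimetic 500 nM, Q-VD-OPh 10 μM), 48 h at 37 °C. Viability by CellTiter-Glo luminescence; IC50 from 4-parameter logistic fit. Counter screen: same cells without TSQ.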

Chain of human RIPK3 (Q9Y572 whole entry): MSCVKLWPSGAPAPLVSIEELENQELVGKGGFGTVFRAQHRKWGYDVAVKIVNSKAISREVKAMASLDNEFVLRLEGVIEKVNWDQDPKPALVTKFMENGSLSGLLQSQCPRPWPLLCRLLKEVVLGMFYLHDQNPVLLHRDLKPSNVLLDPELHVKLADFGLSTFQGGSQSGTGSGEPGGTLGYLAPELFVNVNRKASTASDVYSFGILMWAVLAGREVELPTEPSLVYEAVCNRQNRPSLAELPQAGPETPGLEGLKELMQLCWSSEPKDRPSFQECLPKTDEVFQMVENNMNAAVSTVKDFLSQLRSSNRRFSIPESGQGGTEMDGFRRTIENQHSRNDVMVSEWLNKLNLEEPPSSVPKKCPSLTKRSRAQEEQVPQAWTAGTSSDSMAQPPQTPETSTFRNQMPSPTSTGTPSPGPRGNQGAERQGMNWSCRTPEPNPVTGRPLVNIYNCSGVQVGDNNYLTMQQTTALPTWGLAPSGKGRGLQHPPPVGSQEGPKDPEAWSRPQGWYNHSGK
Chain of human MLKL (full length) (Q8NB16 whole entry): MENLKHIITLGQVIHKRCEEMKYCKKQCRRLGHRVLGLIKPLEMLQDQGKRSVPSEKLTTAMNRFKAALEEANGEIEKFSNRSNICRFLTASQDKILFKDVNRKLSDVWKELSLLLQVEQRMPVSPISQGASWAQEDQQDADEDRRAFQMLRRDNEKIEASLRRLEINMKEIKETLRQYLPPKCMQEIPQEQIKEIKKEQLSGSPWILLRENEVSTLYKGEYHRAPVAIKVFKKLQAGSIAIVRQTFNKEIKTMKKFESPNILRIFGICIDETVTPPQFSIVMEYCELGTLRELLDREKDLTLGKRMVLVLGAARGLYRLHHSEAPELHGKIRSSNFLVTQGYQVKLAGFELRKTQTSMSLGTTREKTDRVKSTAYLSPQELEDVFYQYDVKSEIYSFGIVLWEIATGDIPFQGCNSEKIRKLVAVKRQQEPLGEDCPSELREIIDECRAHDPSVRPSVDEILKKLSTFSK
Chain of human RIPK1 (Q13546 whole entry): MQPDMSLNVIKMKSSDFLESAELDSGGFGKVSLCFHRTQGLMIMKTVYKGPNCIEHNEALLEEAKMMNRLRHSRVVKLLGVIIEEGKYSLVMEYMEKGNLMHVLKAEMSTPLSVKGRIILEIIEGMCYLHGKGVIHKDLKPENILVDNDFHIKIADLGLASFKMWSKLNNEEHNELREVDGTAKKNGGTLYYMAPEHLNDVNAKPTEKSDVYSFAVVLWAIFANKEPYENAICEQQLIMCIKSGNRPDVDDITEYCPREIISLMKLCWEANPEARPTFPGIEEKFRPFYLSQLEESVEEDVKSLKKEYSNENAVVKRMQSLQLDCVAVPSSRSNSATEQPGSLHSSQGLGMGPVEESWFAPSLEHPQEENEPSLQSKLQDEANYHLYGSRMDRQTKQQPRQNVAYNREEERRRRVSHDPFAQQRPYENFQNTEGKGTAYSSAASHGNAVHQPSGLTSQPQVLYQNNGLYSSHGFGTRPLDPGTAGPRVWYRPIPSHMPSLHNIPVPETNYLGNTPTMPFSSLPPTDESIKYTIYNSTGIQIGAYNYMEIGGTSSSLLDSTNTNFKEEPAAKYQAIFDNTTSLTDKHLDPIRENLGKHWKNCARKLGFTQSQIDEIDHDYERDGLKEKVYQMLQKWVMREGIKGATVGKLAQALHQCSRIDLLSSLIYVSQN

SMILES | Kd [1] [µM] | Kd [3] [µM] | Kd [4] [µM] | IC50 [2] [µM] | IC50 [5] [µM]
C[C@H](Oc1cc(-c2nn(C)c3c(-c4cnc(N5CCN(C)CC5)nc4)cnc(N)c23)ccc1NS(=O)(=O)C(F)F)c1ccc(F)cc1 [Compound 105, (S)-N-(4-(4-amino-1-methyl-7-(2-(4-methylpiperazin-1-yl)pyrimidin-5-yl)-1H-pyrazolo[4,3-c]pyridin-3-yl)-2-(1-(4-fluorophenyl)ethoxy)phenyl)-1,1-difluoromethanesulfonamide] | < 0.001 | > 10 | > 10 | > 10 | 0.01 to 1
C[C@H](Oc1cc(-c2nn(C)c3c(-c4ccc5[nH]c(=O)n(C)c5c4)cnc(N)c23)ccc1NS(=O)(=O)C(F)F)c1ccc(F)cc1 [Compound 160, (S)-N-(4-(4-amino-1-methyl-7-(3-methyl-2-oxo-2,3-dihydro-1H-benzo[d]imidazol-5-yl)-1H-pyrazolo[4,3-c]pyridin-3-yl)-2-(1-(4-fluorophenyl)ethoxy)phenyl)-1,1-difluoromethanesulfonamide] | < 0.001 | > 10 | > 10 | > 10 | 0.01 to 1
C[C@H](Oc1cc(-c2nn(C)c3c(-c4ccncn4)cnc(N)c23)ccc1NS(=O)(=O)C(F)F)c1ccc(F)cc1 [Compound 40, (S)—N-(4-(4-amino-1-methyl-7-(pyrimidin-4-yl)-1H-pyrazolo[4,3-c]pyridin-3-yl)-2-(1-(4-fluorophenyl)ethoxy)phenyl)-1,1-difluoromethanesulfonamide] | < 0.001 | > 10 | > 10 | > 10 | < 0.01
CC(C)n1nc(-c2ccc(NS(=O)(=O)C(F)F)c(O[C@@H](C)c3ccc(F)cc3)c2)c2c(N)ncc(-c3ccncc3)c21 [Compound 50, (S)-N-(4-(4-amino-1-isopropyl-7-(pyridin-4-yl)-1H-pyrazolo[4,3-c]pyridin-3-yl)-2-(1-(4-fluorophenyl)ethoxy)phenyl)-1,1-difluoromethanesulfonamide] | < 0.001 | > 10 | > 10 | > 10 | 0.01 to 1
Cc1nn(C2CCN(C)C(C)(C)C2)cc1-c1cnc(N)c2c(-c3ccc(NS(=O)(=O)C(F)F)c(O[C@@H](C)c4ccc(F)cc4)c3)nn(C)c12 (stereo partly drawn) [Compound 156, N-(4-(4-amino-1-methyl-7-(3-methyl-1-(1,2,2-trimethylpiperidin-4-yl)-1H-pyrazol-4-yl)-1H-pyrazolo[4,3-c]pyridin-3-yl)-2-((S)-1-(4-fluorophenyl)ethoxy)phenyl)-1,1-difluoromethanesulfonamide] | 0.001 to 0.1 | > 10 | > 10 | > 10 | 0.01 to 1
COc1cc(-c2cnc(N)c3c(-c4ccc(NS(=O)(=O)C(F)F)c(O[C@@H](C)c5ccc(F)cc5)c4)nn(C)c23)ccn1 [Compound 27, (S)-N-(4-(4-amino-7-(2-methoxypyridin-4-yl)-1-methyl-1H-pyrazolo[4,3-c]pyridin-3-yl)-2-(1-(4-fluorophenyl)ethoxy)phenyl)-1,1-difluoromethanesulfonamide] | 0.001 to 0.1 | > 10 | > 10 | > 10 | 0.01 to 1
C[C@H](Oc1cc(-c2nn(C)c3c(C4=CCN(C)CC4)cnc(N)c23)ccc1NS(=O)(=O)C(F)F)c1ccc(F)cc1 [Compound 21, (S)-N-(4-(4-amino-1-methyl-7-(1-methyl-1,2,3,6-tetrahydropyridin-4-yl)-1H-pyrazolo[4,3-c]pyridin-3-yl)-2-(1-(4-fluorophenyl)ethoxy)phenyl)-1,1-difluoromethanesulfonamide] | < 0.001 | > 10 | > 10 | > 10 | 1 to 10

Now from value to molecule, other results behind:

Kd [1] [µM] | Kd [3] [µM] | Kd [4] [µM] | SMILES | IC50 [2] [µM] | IC50 [5] [µM]
0.001 to 0.1 | > 10 | > 10 | CC(C)n1nc(-c2ccc(NS(=O)(=O)C(F)F)c(O[C@@H](C)c3ccc(F)cc3)c2)c2c(N)ncc(-c3cnn(C4CCOCC4)c3)c21 [Compound 51, (S)-N-(4-(4-amino-1-isopropyl-7-(1-(tetrahydro-2H-pyran-4-yl)-1H-pyrazol-4-yl)-1H-pyrazolo[4,3-c]pyridin-3-yl)-2-(1-(4-fluorophenyl)ethoxy)phenyl)-1,1-difluoromethanesulfonamide] | > 10 | 0.01 to 1
< 0.001 | > 10 | > 10 | C[C@H](Oc1cc(-c2nn(C)c3c(-c4cnn(CC5CCCN5)c4)cnc(N)c23)ccc1NS(=O)(=O)C(F)F)c1ccc(F)cc1 (stereo partly drawn) [Compound 88, N-(4-(4-amino-1-methyl-7-(1-(pyrrolidin-2-ylmethyl)-1H-pyrazol-4-yl)-1H-pyrazolo[4,3-c]pyridin-3-yl)-2-((S)-1-(4-fluorophenyl)ethoxy)phenyl)-1,1-difluoromethanesulfonamide] | > 10 | 0.01 to 1
0.001 to 0.1 | > 10 | > 10 | C[C@H](Oc1cc(-c2nn(C)c3c(-c4cc(C#N)n(C)c4)cnc(N)c23)ccc1NS(=O)(=O)C(F)F)c1ccc(F)cc1 [Compound 83, (S)-N-(4-(4-amino-7-(5-cyano-1-methyl-1H-pyrrol-3-yl)-1-methyl-1H-pyrazolo[4,3-c]pyridin-3-yl)-2-(1-(4-fluorophenyl)ethoxy)phenyl)-1,1-difluoromethanesulfonamide] | > 10 | 0.01 to 1
< 0.001 | > 10 | > 10 | C[C@H](Oc1cc(-c2nn(C)c3c(-c4cnn(C5CCOC5)c4)cnc(N)c23)ccc1NS(=O)(=O)C(F)F)c1ccc(F)cc1 (stereo partly drawn) [Compound 41, N-(4-(4-amino-1-methyl-7-(1-(tetrahydrofuran-3-yl)-1H-pyrazol-4-yl)-1H-pyrazolo[4,3-c]pyridin-3-yl)-2-((S)-1-(4-fluorophenyl)ethoxy)phenyl)-1,1-difluoromethanesulfonamide] | > 10 | < 0.01
0.001 to 0.1 | > 10 | > 10 | CCS(=O)(=O)Nc1ccc(-c2nn(C)c3c(-c4cnn(C5CCOCC5)c4)cnc(N)c23)cc1O[C@@H](C)c1ccc(F)cc1 [Compound 45, (S)-N-(4-(4-amino-1-methyl-7-(1-(tetrahydro-2H-pyran-4-yl)-1H-pyrazol-4-yl)-1H-pyrazolo[4,3-c]pyridin-3-yl)-2-(1-(4-fluorophenyl)ethoxy)phenyl)ethanesulfonamide] | > 10 | 0.01 to 1
< 0.001 | > 10 | > 10 | C[C@H](Oc1cc(-c2nn(C)c3c(-c4cnn(C5CCCNCC5)c4)cnc(N)c23)ccc1NS(=O)(=O)C(F)F)c1ccc(F)cc1 (stereo partly drawn) [Compound 74, N-(4-(4-amino-7-(1-(azepan-4-yl)-1H-pyrazol-4-yl)-1-methyl-1H-pyrazolo[4,3-c]pyridin-3-yl)-2-((S)-1-(4-fluorophenyl)ethoxy)phenyl)-1,1-difluoromethanesulfonamide] | > 10 | 0.01 to 1
< 0.001 | > 10 | > 10 | CC(C)N1CC(n2cc(-c3cnc(N)c4c(-c5ccc(NS(=O)(=O)C(F)F)c(O[C@@H](C)c6ccc(F)cc6)c5)nn(C)c34)cn2)C1 [Compound 76, (S)-N-(4-(4-amino-7-(1-(1-isopropylazetidin-3-yl)-1H-pyrazol-4-yl)-1-methyl-1H-pyrazolo[4,3-c]pyridin-3-yl)-2-(1-(4-fluorophenyl)ethoxy)phenyl)-1,1-difluoromethanesulfonamide] | > 10 | < 0.01
